Experimental data as given in patent publication US20110091945A1, “METHODS OF INCREASING BIOMASS PRODUCTIVITY, LIPID INDUCTION, AND CONTROLLING METABOLITES IN ALGAE FOR PRODUCTION OF BIOFUELS USING BIOCHEMICAL STIMULANTS” (priority 2009, published 2011).

What was measured:
Chlorella sorokiniana [1] = assay: Biostimulant static culture batch study: biomass productivity; assay type: cell-based, Chlorella sorokiniana (UTEX 2805); settings: for effect on biomass / algal growth versus control, in words: day 5 and 10; for effect on biomass / algal growth versus control, in words / growth (biomass) increase over control: dosage of Table 1; for biomass (cell concentration / biomass productivity): 0.16 g/L with no biostimulants; for increase in biomass over control: dosage of Table 1 (NAA 5 ppm, PAA 30 ppm, IBA 10 ppm); for growth (biomass) increase over control: day not given
Method: (§1) The pH value of culture medium was adjusted to 7.0±0.2 before inoculation and the alga was maintained in a temperature controlled growth chamber at 25±1° C. and 100±10 μmoles/m^2/s light intensity provided by cool white fluorescent (6500K) T-8 bulbs.
(§2) • Selection of the biochemical stimulants: Ten biochemical stimulants were selected, including indole-acetic acid, naphthalene-acetic acid, and phenyl-acetic acid The structures are shown in FIGS. 1 and 2. • Biochemical stimulants: Naphthalene acetic acid (NAA), indole-butryic acid […], gibberellic acid, and kelp extract were obtained from Super-Grow Plant Care, Montreal, Canada; Zeatin, and thidiazuron were obtained from bioWORLD, GeneLinx International, Inc, Ohio, USA; phenyl-acetic acid was supplied by Sigma-Aldrich, St. Louis, Mo., USA.
(§3) The experiment devised for the testing of biostimulants was a static culture batch study performed in triplicates for all treatments. Samples were collected and analyzed on day 0, 5 and 10. The growth medium was comprised of 90 ml of BG11 with appropriate concentrations of various biostimulants. Biochemical stimulants were filter sterilized through 0.22 μm Whatman syringe filter to avoid bacterial contamination. Each flask received 10 ml inoculum of exponentially growing Chlorella sorokiniana. After inoculation, flasks were incubated in the environmental growth chamber for 10 days in a temperature controlled growth chamber at 25±1° C. and 100±10 μmoles/m^21s light intensity provided by cool white fluorescent (6500K) T-8 bulbs.
(§4) • Analysis: Optical density was measured at 750 nm using a UV/Visible Spectrophotometer (Varian Cary 50, Varian Inc, Palo Alto, Calif., USA). Chlorophyll content was estimated following the method of Porra et al., ((1989) Biochem. Biophys. Acta 975: 384-394, incorporated herein in its entirety). The carbohydrate and protein content were estimated using the well-known methods of Dubois and Lowry respectively. Biomass was determined by filtering 25 mL of culture using pre-weighed Whatman GF/C glass fiber filters (1.2 μm). The material was washed with deionized water, dried at 60° C. for 12 h, and weighed. Photosynthetic efficiency and kinetics were determined by chlorophyll a fluorescence analysis using a Pulse Amplitude Modulation Fluorometer (Mini-PAM Chlorophyll a Fluorometer, Heinz Walz GmbH, Effeltrich, Germany).

Chlorella sorokiniana [2] = assay: Biostimulant static culture batch study: chlorophyll content; assay type: cell-based, Chlorella sorokiniana (UTEX 2805); design: increase in chlorophyll over control / decrease in chlorophyll content versus control: concentration or dose not given beside the values; settings: for increase in chlorophyll over control: day 10; for decrease in chlorophyll content versus control: day 5
Method: as §1, §2, §3, §4

Chlorella sorokiniana [3] = assay: Biostimulant static culture batch study: total carbohydrate content; assay type: cell-based, Chlorella sorokiniana (UTEX 2805); settings: for effect on carbohydrate synthesis versus control, in words: day 5; for increase in carbohydrate over control: day 10
Method: as §1, §2, §3, §4

Scenedesmus obliquus = settings: 0.5% (v/v); cited from earlier work
[4] = tested on: soy callus and radish cotyledon; settings: cited from earlier work
[5] = tested on: callus tissue culture from tobacco; settings: cited from earlier work
Dunaliella tertiolecta = settings: 136 mg L^−1; cited from earlier work

C=C1C[C@]23C[C@@]1(O)CC[C@H]2[C@@]12C=C[C@H](O)[C@@](C)(C(=O)O1)[C@H]2[C@@H]3C(=O)O [GAA, gibberellic acid]
effect on biomass / algal growth versus control, in words (Chlorella sorokiniana [1]): barely surpassed the control on day 5
biomass (cell concentration / biomass productivity) (Chlorella sorokiniana [1]; day 10): ~0.28 g/L
increase in biomass over control (Chlorella sorokiniana [1]; day 10, listed as GA): approximately 30%
increase in biomass over control (Chlorella sorokiniana [1]; day 10, listed as GA3): 81%
effect on chlorophyll synthesis, in words (Chlorella sorokiniana [2]): inhibiting chlorophyll synthesis throughout the growth period
increase in chlorophyll over control (Chlorella sorokiniana [2]): 30%

O=C(O)CCCc1c[nH]c2ccccc12 [IBA, indole-butryic acid]
increase in biomass over control (Chlorella sorokiniana [1]; day 5): 74%
effect on biomass / algal growth versus control, in words (Chlorella sorokiniana [1]): stimulated biomass growth during the entire 0-10 day growth period
biomass (cell concentration / biomass productivity) (Chlorella sorokiniana [1]; day 10): 0.28 g/L
increase in biomass over control (Chlorella sorokiniana [1]; day 10): 76%
effect on carbohydrate synthesis versus control, in words (Chlorella sorokiniana [3]): reduced carbohydrate contents on day 5
effect on chlorophyll synthesis, in words (Chlorella sorokiniana [2]): marginal increase by day 5
increase in chlorophyll over control (Chlorella sorokiniana [2]): 93%

CO [MeOH, methanol]
increase in the growth rate (Scenedesmus obliquus): > 300%
decrease in chlorophyll content versus control (Chlorella sorokiniana [2]): 45%

O=C(O)Cc1ccccc1 [PAA, Phenyl acetic acid]
increase in biomass over control (Chlorella sorokiniana [1]; day 5): 95%
increase in biomass over control (Chlorella sorokiniana [1]; day 10): 42%
effect on carbohydrate synthesis versus control, in words (Chlorella sorokiniana [3]): reduced carbohydrate contents on day 5
increase in carbohydrate over control (Chlorella sorokiniana [3]): 27%
decrease in chlorophyll content versus control (Chlorella sorokiniana [2]): 37%

O=C(Nc1ccccc1)Nc1cnns1 [TDZ, thidiazuron]
increase in biomass over control (Chlorella sorokiniana [1]; day 10): approximately 30%
growth (biomass) increase over control (Chlorella sorokiniana [1]): 33%
increase in chlorophyll over control (Chlorella sorokiniana [2]): 30%
optimal dose that generated maximum growth in soy callus and expansion of radish cotyledon [4]: 1 µM

C/C(=C\CNc1ncnc2[nH]cnc12)CO [Zeatin]
growth (biomass) increase over control (Chlorella sorokiniana [1]): 27%
effect on carbohydrate synthesis versus control, in words (Chlorella sorokiniana [3]): reduced carbohydrates synthesis on day 5
increase in carbohydrate over control (Chlorella sorokiniana [3]): 31%
activity relative to its cis isomer [5]: at least 50 times
optimal dosage for maximum growth of callus tissue culture [5]: 10^−2 μM

CCNc1nc(Cl)nc(NC(C)C)n1 [atrazine]
increase in lipid content relative to the control (Dunaliella tertiolecta): 101%
reduction of protein content relative to the control (Dunaliella tertiolecta): 57%

[Cl][Fe]([Cl])[Cl] [ferric chloride]
effect on biomass / algal growth versus control, in words (Chlorella sorokiniana [1]): only marginal increases and decreases on day 10 and 5
decrease in chlorophyll content versus control (Chlorella sorokiniana [2]): 65%
